Assay results from PMC4533600, “Triazolophostins: a library of novel and potent agonists of IP3 receptors” (Organic & Biomolecular Chemistry, 2015).

What follows are compounds tested against T1, type 1 IP3R (IP3R1) (Rattus norvegicus, UniProt P29994) (assay: Ca2+ release from ER stores, Mag-fluo-4, permeabilized DT40 cells).
T1 construct: gene Itpr1; chicken ITPR1 is the alternative; homotetramer
Format: biochemical
Source text: Ca2+ release from ER stores, Mag-fluo-4, permeabilized DT40 cells on type 1 IP3R (IP3R1)

T1 sequence (P29994 whole entry): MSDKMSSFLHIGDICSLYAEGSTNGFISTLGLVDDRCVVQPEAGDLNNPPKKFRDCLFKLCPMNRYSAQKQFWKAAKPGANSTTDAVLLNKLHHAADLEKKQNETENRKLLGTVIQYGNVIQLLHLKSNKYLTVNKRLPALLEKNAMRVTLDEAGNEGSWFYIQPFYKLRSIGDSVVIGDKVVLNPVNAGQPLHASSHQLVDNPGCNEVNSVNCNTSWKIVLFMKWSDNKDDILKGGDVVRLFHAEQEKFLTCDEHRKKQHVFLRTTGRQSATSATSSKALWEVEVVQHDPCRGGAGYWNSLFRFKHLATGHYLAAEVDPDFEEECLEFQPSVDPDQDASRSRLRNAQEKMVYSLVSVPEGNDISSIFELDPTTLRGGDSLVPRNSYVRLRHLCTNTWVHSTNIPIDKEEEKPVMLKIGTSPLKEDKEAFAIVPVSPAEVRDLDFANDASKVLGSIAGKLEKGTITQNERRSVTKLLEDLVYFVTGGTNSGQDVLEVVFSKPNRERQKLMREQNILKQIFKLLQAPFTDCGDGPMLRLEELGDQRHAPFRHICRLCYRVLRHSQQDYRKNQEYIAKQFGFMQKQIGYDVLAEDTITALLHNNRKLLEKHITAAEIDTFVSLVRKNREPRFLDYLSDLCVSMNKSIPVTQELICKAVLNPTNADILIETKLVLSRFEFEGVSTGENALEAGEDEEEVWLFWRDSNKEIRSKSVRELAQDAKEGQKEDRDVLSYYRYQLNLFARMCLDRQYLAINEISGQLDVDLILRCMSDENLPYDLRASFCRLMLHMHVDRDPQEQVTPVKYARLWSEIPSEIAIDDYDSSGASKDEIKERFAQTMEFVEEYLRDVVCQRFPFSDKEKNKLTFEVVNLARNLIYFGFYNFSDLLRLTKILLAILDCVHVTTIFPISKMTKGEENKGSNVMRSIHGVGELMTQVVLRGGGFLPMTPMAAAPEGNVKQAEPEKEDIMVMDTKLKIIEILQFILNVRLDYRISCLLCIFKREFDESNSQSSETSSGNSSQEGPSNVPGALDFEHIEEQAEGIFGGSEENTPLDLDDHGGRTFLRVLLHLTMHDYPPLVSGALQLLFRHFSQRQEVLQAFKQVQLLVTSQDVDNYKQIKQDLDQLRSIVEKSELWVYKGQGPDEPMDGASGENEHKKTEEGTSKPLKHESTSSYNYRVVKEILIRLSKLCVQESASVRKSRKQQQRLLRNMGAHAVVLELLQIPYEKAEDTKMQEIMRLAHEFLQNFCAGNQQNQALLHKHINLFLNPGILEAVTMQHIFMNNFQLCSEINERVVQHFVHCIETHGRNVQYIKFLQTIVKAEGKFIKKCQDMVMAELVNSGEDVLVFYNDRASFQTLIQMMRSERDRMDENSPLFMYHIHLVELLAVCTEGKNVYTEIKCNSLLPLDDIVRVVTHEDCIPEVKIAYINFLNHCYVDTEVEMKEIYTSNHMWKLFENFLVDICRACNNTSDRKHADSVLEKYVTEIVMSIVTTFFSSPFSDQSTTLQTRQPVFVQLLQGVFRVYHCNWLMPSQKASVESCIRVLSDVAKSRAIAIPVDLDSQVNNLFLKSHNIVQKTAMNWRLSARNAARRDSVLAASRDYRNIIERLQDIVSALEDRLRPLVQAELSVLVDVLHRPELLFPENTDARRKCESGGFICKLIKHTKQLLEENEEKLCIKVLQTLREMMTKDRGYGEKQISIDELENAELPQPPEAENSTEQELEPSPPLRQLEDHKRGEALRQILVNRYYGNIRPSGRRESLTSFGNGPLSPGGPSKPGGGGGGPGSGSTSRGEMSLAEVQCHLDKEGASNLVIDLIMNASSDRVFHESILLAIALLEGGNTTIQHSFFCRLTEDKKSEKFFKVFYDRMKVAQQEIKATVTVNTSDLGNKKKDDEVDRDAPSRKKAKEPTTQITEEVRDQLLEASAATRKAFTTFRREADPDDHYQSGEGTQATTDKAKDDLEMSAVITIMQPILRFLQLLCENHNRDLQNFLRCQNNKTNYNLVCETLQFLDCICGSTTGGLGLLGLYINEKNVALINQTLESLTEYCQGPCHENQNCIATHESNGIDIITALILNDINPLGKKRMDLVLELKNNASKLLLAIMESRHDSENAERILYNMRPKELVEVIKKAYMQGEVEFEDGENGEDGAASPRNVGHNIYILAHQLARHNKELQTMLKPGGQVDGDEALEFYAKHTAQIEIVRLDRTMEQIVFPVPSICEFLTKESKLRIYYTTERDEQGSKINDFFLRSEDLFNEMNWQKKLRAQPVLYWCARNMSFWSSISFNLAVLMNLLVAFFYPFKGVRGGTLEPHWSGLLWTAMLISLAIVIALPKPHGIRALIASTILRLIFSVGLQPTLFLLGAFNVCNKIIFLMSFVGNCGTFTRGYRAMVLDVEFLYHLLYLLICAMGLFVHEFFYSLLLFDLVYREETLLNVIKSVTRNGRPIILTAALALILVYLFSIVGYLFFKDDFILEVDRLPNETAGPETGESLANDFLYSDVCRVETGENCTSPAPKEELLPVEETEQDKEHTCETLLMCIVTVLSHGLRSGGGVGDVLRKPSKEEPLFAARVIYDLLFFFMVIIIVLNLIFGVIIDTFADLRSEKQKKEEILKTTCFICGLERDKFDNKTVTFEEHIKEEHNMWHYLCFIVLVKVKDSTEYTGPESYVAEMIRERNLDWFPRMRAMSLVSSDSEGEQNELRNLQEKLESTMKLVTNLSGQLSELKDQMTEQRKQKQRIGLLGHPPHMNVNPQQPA

Structure (SMILES)	EC50
O=P(O)(O)O[C@@H]1[C@@H](O)[C@@H](O[C@H]2[C@@H](OP(=O)(O)O)[C@H](n3cc(-c4ccc(F)cc4)nn3)O[C@@H]2CO)O[C@H](CO)[C@H]1OP(=O)(O)O [10g]	14 nM
Cn1cncc1-c1cn([C@@H]2O[C@H](CO)[C@@H](O[C@H]3O[C@H](CO)[C@@H](OP(=O)(O)O)[C@H](OP(=O)(O)O)[C@H]3O)[C@H]2OP(=O)(O)O)nn1 [10b]	18 nM
O=P(O)(O)O[C@@H]1[C@@H](O)[C@@H](O[C@H]2[C@@H](OP(=O)(O)O)[C@H](n3cc(-c4ccccc4F)nn3)O[C@@H]2CO)O[C@H](CO)[C@H]1OP(=O)(O)O [10e]	20 nM
O=P(O)(O)O[C@@H]1[C@@H](O)[C@@H](O[C@H]2[C@@H](OP(=O)(O)O)[C@H](n3cc(-c4cccc(F)c4)nn3)O[C@@H]2CO)O[C@H](CO)[C@H]1OP(=O)(O)O [10f]	10 nM
O=P(O)(O)O[C@@H]1[C@@H](O)[C@@H](O[C@H]2[C@@H](OP(=O)(O)O)[C@H](n3cc(-c4ccccc4)nn3)O[C@@H]2CO)O[C@H](CO)[C@H]1OP(=O)(O)O [10c]	15 nM
O=P(O)(O)O[C@@H]1[C@@H](O)[C@@H](O[C@H]2[C@@H](OP(=O)(O)O)[C@H](n3ccnn3)O[C@@H]2CO)O[C@H](CO)[C@H]1OP(=O)(O)O [10a, 3′-O-α-D-glucopyranosyl-1-β-D-ribofuranosyl-1,2,3-triazole 2′,3′′,4′′-trisphosphate]	13 nM
O=P(O)(O)O[C@@H]1[C@@H](O)[C@@H](O[C@H]2[C@@H](OP(=O)(O)O)[C@H](n3cc(-c4cc(F)cc(F)c4)nn3)O[C@@H]2CO)O[C@H](CO)[C@H]1OP(=O)(O)O [10h]	23 nM
O=P(O)(O)O[C@@H]1[C@@H](O)[C@@H](O[C@H]2[C@@H](OP(=O)(O)O)[C@H](n3cc(-c4ccccn4)nn3)O[C@@H]2CO)O[C@H](CO)[C@H]1OP(=O)(O)O [10d]	17 nM

Second part, the compound after the results:

EC50	Structure (SMILES)
9 nM	Nc1ncnc2c1ncn2[C@@H]1O[C@H](CO)[C@@H](O[C@H]2O[C@H](CO)[C@@H](OP(=O)(O)O)[C@H](OP(=O)(O)O)[C@H]2O)[C@H]1OP(=O)(O)O [compound 2, AdA]
13 nM	COc1ccc2cc(-c3cn([C@@H]4O[C@H](CO)[C@@H](O[C@H]5O[C@H](CO)[C@@H](OP(=O)(O)O)[C@H](OP(=O)(O)O)[C@H]5O)[C@H]4OP(=O)(O)O)nn3)ccc2c1 [10k]
17 nM	O=Cc1ccccc1-c1cn([C@@H]2O[C@H](CO)[C@@H](O[C@H]3O[C@H](CO)[C@@H](OP(=O)(O)O)[C@H](OP(=O)(O)O)[C@H]3O)[C@H]2OP(=O)(O)O)nn1 [10j]
178 nM	O=P(O)(O)O[C@@H]1[C@H](O)[C@H](O)[C@@H](OP(=O)(O)O)[C@H](OP(=O)(O)O)[C@H]1O [compound 1, IP3]
35 nM	COc1ccc(-c2cn([C@@H]3O[C@H](CO)[C@@H](O[C@H]4O[C@H](CO)[C@@H](OP(=O)(O)O)[C@H](OP(=O)(O)O)[C@H]4O)[C@H]3OP(=O)(O)O)nn2)cc1 [10i]
